The target of the first assay is human recombinant TRPV1 (Homo sapiens (Human), UniProt Q8NER1). The experiment in a line: TRPV1 pH-Based Assay (Protocol 2, Ca2+ response in TRPV1/CHO cells, Fura-2). In kind it is cell-based.
Sequence of human recombinant TRPV1 (Q8NER1 whole entry): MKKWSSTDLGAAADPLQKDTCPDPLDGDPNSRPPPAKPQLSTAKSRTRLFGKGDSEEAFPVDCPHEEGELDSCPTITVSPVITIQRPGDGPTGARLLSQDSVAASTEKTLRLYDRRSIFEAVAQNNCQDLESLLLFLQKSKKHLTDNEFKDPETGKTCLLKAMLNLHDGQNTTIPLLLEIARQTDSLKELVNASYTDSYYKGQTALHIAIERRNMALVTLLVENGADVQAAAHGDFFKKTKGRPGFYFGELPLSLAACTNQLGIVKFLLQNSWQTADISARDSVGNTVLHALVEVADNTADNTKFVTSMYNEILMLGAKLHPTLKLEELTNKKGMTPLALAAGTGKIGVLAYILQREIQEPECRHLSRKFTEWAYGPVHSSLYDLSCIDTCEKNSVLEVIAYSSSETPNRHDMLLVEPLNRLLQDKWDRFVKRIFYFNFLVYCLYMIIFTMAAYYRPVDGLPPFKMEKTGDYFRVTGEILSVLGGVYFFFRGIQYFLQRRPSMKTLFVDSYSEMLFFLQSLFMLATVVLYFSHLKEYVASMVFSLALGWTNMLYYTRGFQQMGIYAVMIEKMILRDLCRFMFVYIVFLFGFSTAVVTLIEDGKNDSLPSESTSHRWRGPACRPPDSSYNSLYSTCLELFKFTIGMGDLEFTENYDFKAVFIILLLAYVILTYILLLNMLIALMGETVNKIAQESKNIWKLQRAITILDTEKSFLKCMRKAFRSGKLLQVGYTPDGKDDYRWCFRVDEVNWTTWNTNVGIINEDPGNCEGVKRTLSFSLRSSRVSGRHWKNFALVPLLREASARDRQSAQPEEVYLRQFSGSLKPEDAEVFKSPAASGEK
Conditions: not given
On the procedure: For Protocol 2, a Chinese Hamster Ovary cell line (CHO) that has been engineered to constitutively express human recombinant TRPV1 was used (TRPV1/CHO cells). The TRPV1/CHO cell line was generated as described below.
TRPV1/CHO cells were seeded in the 96-well clear-bottom black-wall plate (Nunc) at densities of 1-2×10^4 cells/well and grown in 100 μL of culture medium (alpha-MEM supplemented with 10% FBS, 20 mM HEPES, 1 mg/mL geneticin and 1% antibiotic-antimycotic mixed stock solution) for 1-2 days before the experiment.
(2) The 96-well plate was incubated at 37° C. for 45 min.
(3) The loading buffer was removed from each well. […] The wells were then refilled with 80 μL of measuring buffer.
(4) After an incubation at 4° C. for 15 min, the 96-well plate was transferred to FDSS-3000 (Hamamatsu Photonics, Japan).
(5) The Fura-2 fluorescent intensity was monitored at a wavelength of 340 nm and at 380 nm, respectively, at a rate of 0.5 Hz for a total of 240 seconds. After 16 time points (32 sec) of baseline detection, 20 μL of agonist solution was added to each well. The final volume was 100 μL/well.
(6) Fluorescence intensity ratio refers to the fluorescence intensity at 340 nm over the fluorescence intensity at 380 nm at a particular time point. The baseline was set as the average of the fluorescent intensity ratios for the first 16 time points before the addition of agonist solution. The maximum response was the highest fluorescent intensity ratio during the 60 time points following addition of agonist solution.
(7) Maximal signal ratios from each well were calculated as output data using the FDSS-3000 analysis program. Data were analyzed using Excel (Microsoft) and XLfit (idbs) software.
Two different agonist solutions with different H2SO4 concentrations were used for the pH assay (FIG. 3A). For one half of a 96-well plate one agonist solution was used, for the other half the other agonist solution. The agonist solutions were obtained by diluting sulfuric acid (H2SO4, 1M) with measuring buffer. The concentrations for the two agonist solutions were determined as described above in Section 2 of Protocol 2.
The sulfuric acid concentrations between the two agonist solutions differed by 0.5 mM. […] After 1:4 dilution of the agonist solutions, the final sulfuric acid concentration was 3.2 mM and 3.3 mM, respectively. The resulting pH value for the pH assay was 5.0 to 5.1.
Test compounds were dissolved in DMSO to yield 1 mM stock solutions. […] The thereby-obtained solutions were further diluted in measuring buffer (1:100) as 10× stock serial dilutions with a DMSO concentration of 1%. 10 μL of a 10× stock was added into each well at step 3.3.(4) of Protocol 2.
Steps (1) and (2) of this Assay were the same as steps 2.2.(1) and 2.2.(2) of Protocol 2, respectively.
(3) The cells were washed twice with 150 μL of measuring buffer (mentioned in 2.2.(3) of Protocol 2, no probenecid). The wells were subsequently refilled with 70 μL of measuring buffer.
(4) Either 10 μl of measuring buffer or 10 μL of 10× stock serial dilution of test compound (described in 3.2. above) were applied to each well. Usually, only one test compound was tested per 96-well plate. The number of replicates per 96-well plate for a particular antagonist at a particular concentration was 7×2 since two different sulfuric acid concentrations were used per 96-well plate (N=7×2) (FIG. 3).
Step (5) was the same as 2.2.(4) above.
(6) Fura-2 fluorescent intensity was monitored as described in 2.2.(5) above. After 16 time points of baseline detection, 20 μL of agonist solution (measuring buffer titrated with H2SO4 to yield pH 5.0-5.1 when mixed 1:4 with the measuring buffer containing test compound) was added to each well (final volume 100 μL/well).
Steps (7) and (8) were as described in 2.2.(6) and 2.2.(7) above, respectively.
(1) The pH values of the buffer in the wells of A1→H1 and A7→H7 (longitudinally; FIG. 3) were measured one by one using a portable pH meter.
Broadly, the IC50 is the concentration needed to halve the response being measured. In the case of `O=C(Nc1nc2cc(F)c(F)cc2s1)N1CCN(c2ncc(C[C@@H](O)CO)cc2F)CC1` [AFA], the 50% inhibitory concentration (IC50) was at most 0.05 µM.

The same assay, now with this note: TRPV1/CHO cells, pH 5.0-5.1; comparative compounds without the substituted alkyl group; read-out: TRPV1 IC50 Potency (pH-Based Assay), Comparative compound IC50.
Take `O=C(Nc1nc2ccc(F)cc2s1)N1CC=C(c2ncccc2Cl)CC1` [reference compound]: the IC50 was determined as 0.943 µM.

As for `O=C(Nc1ccc(C(F)(F)F)c(Cl)c1)N1CC=C(c2ncccc2Cl)CC1` [drawing 478, reference compound], the half-maximal inhibitory concentration (IC50) is 0.139 µM.

For `O=C(Nc1ccc(C(F)(F)F)c(Cl)c1)N1CC=C(c2ncccc2Cl)CC1` [drawing 493, reference compound], the half-inhibitory concentration (IC50) came out at 0.077 µM.

Still in this assay, the particulars now being: TRPV1/CHO cells, pH 5.0-5.1; compounds of the invention; read-out: TRPV1 IC50 Potency (pH-Based Assay), Compound IC50.
In the case of `O=C(Nc1nc2ccc(C(F)(F)F)cc2s1)N1CCC(F)(c2ncc([C@H](O)[C@H](O)CO)cc2Cl)CC1`, the IC50 was 0.171 µM.

For `O=C(Nc1ccc(C(F)(F)F)cc1)N1CC=C(c2ncc(CC(O)CO)cc2Cl)CC1` (stereo not shown), the IC50 was determined as 0.012 µM.

Regarding `O=C(Nc1ccc(OC(F)(F)F)c(Cl)c1)N1CC=C(c2ncc(C[C@@H](O)CO)cc2Cl)CC1`, the 50% inhibitory concentration (IC50) was determined as 0.017 µM.

Consider `O=C(Nc1nc2ccc(C(F)(F)F)cc2s1)N1CCC(F)(c2ncc(C[C@H](O)CO)cc2Cl)CC1`, for which the IC50 turned out to be 0.614 µM.

With `O=C(Nc1ccc(C(F)(F)F)cn1)N1CCC(F)(c2ncc([C@H](O)[C@H](O)CO)cc2Cl)CC1`, the IC50 was 0.143 µM.

For `O=C(Nc1ccc(C(F)(F)F)cn1)N1CC=C(c2ncc(CC(O)CO)cc2Cl)CC1` (stereo not shown), the concentration for half-maximal inhibition (IC50) was found to be 0.038 µM.

As to `O=C(Nc1ccc(OC(F)(F)F)cn1)N1CC=C(c2ncc(C(F)(F)[C@@H](O)CO)cc2Cl)CC1`, the IC50 amounted to 0.046 µM.

Turning to `CO[C@@H]1CN(c2ncc(C[C@@H](O)CO)cc2Cl)CCN1C(=O)Nc1nc2ccc(F)cc2s1`, the half-inhibitory concentration (IC50) was found to be 0.001 µM.

Turning to `O=C(Nc1ccc(C(F)(F)F)c(Cl)c1)N1CC=C(c2ncc(CC(O)CO)cc2Cl)CC1` (stereo not shown), the IC50 stood at 0.01 µM.

The same assay, now with this note: TRPV1/CHO cells, pH 5.0-5.1; read-out: IC50 value by the pH-Based Assay.
Regarding `C[C@@H]1CN(c2ncc(C[C@H](O)CO)cc2F)CCN1C(=O)Nc1nc2ccccc2s1` [AGX], the half-inhibitory concentration (IC50) was at most 0.05 µM.

With `Cc1cc2nc(NC(=O)N3CCN(c4ncc(C[C@H](O)CO)cc4F)C[C@@H]3C)sc2cc1C` [AEU], the IC50 is at most 0.05 µM.

Consider `O=C(Nc1nc2ccc(F)cc2s1)N1CC=C(c2ncc(C[C@H](O)CO)cc2Cl)CC1` [AAH], for which the 50% inhibitory concentration (IC50) was at most 0.05 µM.

For the compound `C[C@H]1CN(c2ncc(C[C@H](O)CO)cc2F)CCN1C(=O)Nc1nc2ccc(F)cc2s1` [AEL], the half-maximal inhibitory concentration (IC50) was at most 0.05 µM.

Turning to `O=C(Nc1nc2ccc(F)cc2s1)N1C2CCC1CN(c1ncc(C[C@H](O)CO)cc1F)C2` [AHB], the concentration for half-maximal inhibition (IC50) was at most 0.05 µM.

For the compound `Cc1cc(NC(=O)N2CC=C(c3ncc(C[C@H](O)CO)cc3Cl)CC2)ccc1C(F)(F)F` [ACG, (S)-4-(3-Chloro-5-(2,3-dihydroxypropyl)pyridin-2-yl)-N-(3-methyl-4-(trifluoromethyl)phenyl)-5,6-dihydropyridine-1(2H)-carboxamide], the IC50 is at most 0.05 µM.

With `O=C(Nc1ccc(C(F)(F)F)c(Cl)c1)N1CC=C(c2ncc(C[C@H](O)CO)cc2F)CC1` [AAZ, (S)-N-(3-chloro-4-(trifluoromethyl)phenyl)-5-(2,3-dihydroxy-propyl)-3-fluoro-5′,6′-dihydro-[2,4′-bipyridine]-1′(2′H)-carboxamide], the half-maximal inhibitory concentration (IC50) was at most 0.05 µM.

For the compound `Cc1cc2nc(NC(=O)N3CCN(c4ncc(C[C@@H](O)CO)cc4F)C[C@@H]3C)sc2cc1C` [AET], the IC50 was at most 0.05 µM.

On to `C[C@H]1CN(c2ncc(C[C@H](O)CO)cc2F)CCN1C(=O)Nc1nc2cc(F)c(F)cc2s1` [AEZ], for which the IC50 is at most 0.05 µM.

Consider `Cc1cc(NC(=O)N2CC=C(c3ncc(C(F)(F)[C@@H](O)CO)cc3Cl)CC2)ccc1C(F)(F)F` [ADC, (S)-4-(3-chloro-5-(1,1-difluoro-2,3-dihydroxypropyl)pyridin-2-yl)-N-(3-methyl-4-(trifluoromethyl)phenyl)-5,6-dihydropyridine-1(2H)-carboxamide], for which the half-inhibitory concentration (IC50) is at most 0.05 µM.

For `C[C@H]1CN(c2ncc(C[C@@H](O)CO)cc2F)CCN1C(=O)Nc1nc2ccc(F)cc2s1` [AEJ], the IC50 was at most 0.05 µM.

Consider `Cc1ccc2nc(NC(=O)N3CCN(c4ncc(C[C@@H](O)CO)cc4F)[C@@H](C)C3)sc2c1` [AFO, (S)-4-(5-((R)-2,3-dihydroxypropyl)-3-fluoropyridin-2-yl)-3-methyl-N-(6-methylbenzo[d]thiazol-2-yl)piperazine-1-carboxamide], for which the IC50 was at most 0.05 µM.

Regarding `C[C@H]1CN(C(=O)Nc2nc3cc(F)c(F)cc3s2)CCN1c1ncc(C[C@H](O)CO)cc1F` [AGL], the half-maximal inhibitory concentration (IC50) was at most 0.05 µM.

Regarding `O=C(Nc1ccc(C(F)(F)F)cn1)N1CC=C(c2ncc(C[C@@H](O)CO)cc2Cl)CC1` [AAJ, (R)-4-(3-Chloro-5-(2,3-dihydroxypropyl)pyridin-2-yl)-N-(5-(trifluoromethyl)pyridin-2-yl)-5,6-dihydropyridine-1(2H)-carboxamide], the 50% inhibitory concentration (IC50) is at most 0.05 µM.

On to `Cc1cc(NC(=O)N2CCC(F)(c3ncc(C[C@H](O)CO)cc3F)CC2)ccc1OC(F)(F)F` [ACR, (S)-4-(5-(2,3-dihydroxypropyl)-3-fluoropyridin-2-yl)-4-fluoro-N-(3-methyl-4-(trifluoromethoxy)phenyl)piperidine-1-carboxamide], for which the concentration for half-maximal inhibition (IC50) is at most 0.05 µM.

For the compound `O=C(Nc1nc2ccc(F)cc2s1)N1CC=C(c2ncc(C[C@@H](O)CO)cc2Cl)CC1` [AAL, (R)-4-(3-Chloro-5-(2,3-dihydroxypropyl)pyridin-2-yl)-N-(6-fluorobenzo[d]thiazol-2-yl)-5,6-dihydropyridine-1(2H)-carboxamide], the IC50 was at most 0.05 µM.

`C[C@H]1CN(c2ncc(C[C@H](O)CO)cc2F)CCN1C(=O)Nc1nc2ccc(SC(F)(F)F)cc2s1` [AGR]: the IC50 was at most 0.05 µM.

With `C[C@@H]1CN(c2ncc(C[C@H](O)CO)cc2F)C[C@H](C)N1C(=O)Nc1nc2ccc(F)cc2s1` [AFU], the 50% inhibitory concentration (IC50) was at most 0.05 µM.

On to `O=C(Nc1ccc(C(F)(F)F)c(Cl)c1)N1CC=C(c2ncc(C[C@@H](O)CO)cc2F)CC1` [AAY, (R)-N-(3-chloro-4-(trifluoromethyl)phenyl)-5-(2,3-dihydroxypropyl)-3-fluoro-5′,6′-dihydro-[2,4′-bipyridine]-1′(2′H)-carboxamide], for which the IC50 is at most 0.05 µM.

`Cc1cc([C@H](O)[C@@H](O)CO)cnc1C1(F)CCN(C(=O)Nc2ccc(C(F)(F)F)c(Cl)c2)CC1` [ABH, N-(3-Chloro-4-(trifluoromethyl)phenyl)-4-fluoro-4-(3-methyl-5-((1S,2S)-1,2,3-trihydroxypropyl)pyridin-2-yl)piperidine-1-carboxamide]: the IC50 is at most 0.05 µM.

On to `C[C@H]1CN(C(=O)Nc2nc3ccc(F)cc3s2)CCN1c1ncc(C[C@H](O)CO)cc1F` [AFM, (S)-4-(5-((S)-2,3-dihydroxypropyl)-3-fluoropyridin-2-yl)-N-(6-fluorobenzo[d]thiazol-2-yl)-3-methylpiperazine-1-carboxamide], for which the IC50 is at most 0.05 µM.

For `C[C@H]1CN(c2ncc(C[C@@H](O)CO)cc2C(F)(F)F)CCN1C(=O)Nc1nc2ccccc2s1` [AGV], the half-maximal inhibitory concentration (IC50) is at most 0.05 µM.

For `O=C(Nc1ccc(C(F)(F)F)c(Cl)c1)N1CCC(F)(c2ncc([C@H](O)[C@@H](O)CO)cc2Cl)CC1` [ABG, N-(3-Chloro-4-(trifluoromethyl)phenyl)-4-(3-chloro-5-((1S,2S)-1,2,3-trihydroxypropyl)pyridin-2-yl)-4-fluoropiperidine-1-carboxamide], the IC50 is at most 0.05 µM.

Regarding `O=C(Nc1nc2ccccc2s1)N1CCN(c2ncc(C[C@H](O)CO)cc2Cl)CC1` [ADS], the IC50 was at most 0.05 µM.

The record behind these values is patent US8921373B2, “Compounds having TRPV1 antagonistic activity and uses thereof” (Shionogi & Co., Ltd., priority 2010, dated 2014).
